Measurements published in patent US7691392B2 (Kosan Biosciences Incorporated, priority 2005, dated 2010).
“Also recorded” adds a separate entry of the source.

How the values were obtained:
solid tumors = conditions: adult patients with solid tumors; cited from earlier work
[1] = tested on: MEXF 276 L melanoma cells; conditions: exposure to 17-AAG; cited from earlier work
[2] = weekly dosing schedule; cited from earlier work
[3] = tested on: diffuse GFP positive MM lesions; conditions: survival analysis; cited from earlier work
advanced solid tumors = conditions: patients with advanced solid tumors; cited from earlier work
cell kill = conditions: in vitro and in vivo xenograft models; cited from earlier work
[4] = tested on: lung cancer cells with wild-type Rb; conditions: exposure to 17-AAG; cited from earlier work
[5] = Dose limiting toxicity and drug-related toxicities in the MM trial
Description: Non-Hematologic toxicities comprise: (1) any≧Grade 3 non-hematologic toxicity (except Grade 3 injection site reaction, alopecia, anorexia, fatigue), (2) nausea, diarrhea and/or vomiting of Grade≧3 despite the use of maximal medical intervention and/or prophylaxis, and/or (3) treatment delay of more than 4 weeks due to prolonged recovery from a drug-related toxicity.
The doses and schedule of study drug were as follows. […] Subsequent patient cohorts were enrolled per the escalation scheme outlined in the table below, as supported by observed toxicities. […] If one of three evaluable patients experienced a DLT, then the cohort was increased to six evaluable patients. If two or more of six evaluable patients in a cohort experienced a DLT, then the MTD was deemed to have been exceeded; all further accrual was at the previous dose level. If no more than one of the six patients experienced a DLT, then the next dose level was evaluated.

CD138+ myeloma cells = experiment: Abnormal mitochondrial potential (apoptosis) of CD138+ cells from bone marrow aspirates; format: in vivo, human
Description: PD assessment included the following tests: The occurrence of specific toxicities (e.g., severity, duration and reversibility) was compared to PK parameters (e.g., clearance, exposure, elimination half-life, maximal plasma concentration, and time above a target plasma concentration). These toxicities included hepatotoxicity and gastrointestinal toxicities. The laboratory correlates included a) surface expression of insulin-like growth factor receptor-1 (IGF-1R) and b), total expression of Akt, Hsp90 and Hsp70. […] Immunoblotting analyses were used to evaluate the total levels of Akt, Hsp90 and Hsp70. […] Finally, peripheral blood mononuclear cells were isolated on two occasions (the first and last infusion in Cycle 1, on Days 1 and 11) prior to and 4 hours following the infusion. Cells were examined for change in client protein expression by Western Blot. Client proteins of interest include Hsp70, RAF1, LCK and CDK4 and others as indicated.
MM cells were purified by a Fluorescence Activated Cell Sorter (FACS) from the BMA based upon CD138 expression. These CD138^+ cells collected were then tested for abnormal mitochondrial potential by measuring mitochondrial potential in plasma cells using […] (BD Biosciences, San Jose, Calif.). […] Abnormal mitochondrial potential is observed prior to apoptosis of that cell (programmed cell death).

Raf-1 = conditions: at 24 hours; cited from earlier work
[6] = dose levels studied; cited from earlier work
[7] = tested on: SKBr3 breast cancer cells; conditions: exposure to 17-AAG; cited from earlier work
plasma protein = experiment: Plasma protein binding, in vitro assays using human blood
[8] = tested on: solid tumors and lymphomas; conditions: patients with solid tumors and lymphomas; cited from earlier work
metastatic melanoma = conditions: cited from earlier work
[9] = weekly 17-AAG, 3 weeks out of a 4 week cycle; cited from earlier work

Q: Which results are given for `C=CCNC1=C2C[C@@H](C)C[C@H](OC)[C@H](O)[C@@H](C)/C=C(\C)[C@H](OC(N)=O)[C@@H](OC)/C=C\C=C(/C)C(=O)NC(=CC1=O)C2=O` [17-AAG, 17-Allylamino-17-demethoxygeldanamycin]?
A: objective tumor responses (solid tumors): No objective tumor responses were observed; effect on client proteins [1]: depletion of Hsp90 and down-regulation of Raf-1 and erbB2; Vss [2]: 130 ± 50 L; t1/2 [2]: 2.98 ± 1.0 h; median overall survival [3]: significantly prolonged median overall survival; objective tumor responses (advanced solid tumors): No objective tumor responses have been observed; concentrations needed to achieve cell kill (cell kill): 10 to 500 nM; effect on client proteins [4]: degradation of cdk4, cdk6, and cyclin E; DLT ([5]; 150 mg/m^2, four patients): DLT was not observed in any of these four patients; DLT ([5]; 220 mg/m^2, seven evaluable patients): DLT was observed in one patient; the DLT was liver infiltration of plasma cells with a Grade 3 elevated ALT; DLT ([5]; 275 mg/m^2 twice weekly two of three weeks, three patients): DLT was not observed in any of these three patients; also recorded: without reaching dose limiting toxicity; drug-related toxicities other than the single Grade 3 elevated ALT ([5]; all dose levels): Grade 1-2 elevated transaminases, nausea, fatigue, diarrhea, anemia, myalgias and rash; percent of CD138+ cells with abnormal mitochondrial potential in BM (CD138+ myeloma cells; Day 11 of treatment (less than 5% prior to treatment), p=0.06, FIG. 9): more than 40%; increase in percent of cells with abnormal mitochondrial potential (CD138+ myeloma cells; Day 11 versus prior to treatment): more than 35%; apoptosis in BMAs (CD138+ myeloma cells; screening versus Day 11, 150 and 220 mg/m^2 doses): increased apoptosis; also recorded: increase in apoptosis; patients with Raf-1 depletion in tumor biopsies (Raf-1): 4 out of 6; relation of dose and area under the curve (AUC) [6]: linear correlation; effect on client proteins [7]: depletion of erbB2 and destabilization of Raf-1 and mutant p53; protein bound in plasma (plasma protein): approximately 95%; objective tumor responses [8]: No objective tumor responses have been observed; complete or partial responses (metastatic melanoma; once weekly schedule): No complete or partial responses were recorded; stable disease (metastatic melanoma; patients treated at 320-450 mg/m^2): two showed radiologically documented long term stable disease; MTD [9]: 308 mg/m^2
